Each block holds one compound with its values, some of them ahead of it.
What was measured:
Experiment in all cases: radiometric filter-binding kinase assay
GSK3B (human) = GSK3B (human) (UniProt P49841)
HIPK2 (human) = HIPK2 (human) (UniProt Q9H2X6)
SRC (human) = SRC (human) (UniProt P12931)
PRKAA1 or PRKAA2 (rat) = conditions: accession and sequence are those of the human protein
YES1 (human) = YES1 (human) (UniProt P07947)
INSR (human) = INSR (human) (UniProt P06213)
MAPK13 (human) = MAPK13 (human) (UniProt O15264)
[1] = system: AKT2 (human), P31751 [S474D]
SYK (human) = SYK (human) (UniProt P43405)
EPHA4 (human) = EPHA4 (human) (UniProt P54764)
BRSK2 (human) = BRSK2 (human) (UniProt Q8IWQ3)
MAPK1 (human) = MAPK1 (human) (UniProt P28482)
EPHB1 (human) = EPHB1 (human) (UniProt P54762)
LCK (mouse) = conditions: accession and sequence are those of the human protein
PKN2 (human) = PKN2 (human) (UniProt Q16513)
PKN2 (human), sequence (Q16513 whole entry, looked up): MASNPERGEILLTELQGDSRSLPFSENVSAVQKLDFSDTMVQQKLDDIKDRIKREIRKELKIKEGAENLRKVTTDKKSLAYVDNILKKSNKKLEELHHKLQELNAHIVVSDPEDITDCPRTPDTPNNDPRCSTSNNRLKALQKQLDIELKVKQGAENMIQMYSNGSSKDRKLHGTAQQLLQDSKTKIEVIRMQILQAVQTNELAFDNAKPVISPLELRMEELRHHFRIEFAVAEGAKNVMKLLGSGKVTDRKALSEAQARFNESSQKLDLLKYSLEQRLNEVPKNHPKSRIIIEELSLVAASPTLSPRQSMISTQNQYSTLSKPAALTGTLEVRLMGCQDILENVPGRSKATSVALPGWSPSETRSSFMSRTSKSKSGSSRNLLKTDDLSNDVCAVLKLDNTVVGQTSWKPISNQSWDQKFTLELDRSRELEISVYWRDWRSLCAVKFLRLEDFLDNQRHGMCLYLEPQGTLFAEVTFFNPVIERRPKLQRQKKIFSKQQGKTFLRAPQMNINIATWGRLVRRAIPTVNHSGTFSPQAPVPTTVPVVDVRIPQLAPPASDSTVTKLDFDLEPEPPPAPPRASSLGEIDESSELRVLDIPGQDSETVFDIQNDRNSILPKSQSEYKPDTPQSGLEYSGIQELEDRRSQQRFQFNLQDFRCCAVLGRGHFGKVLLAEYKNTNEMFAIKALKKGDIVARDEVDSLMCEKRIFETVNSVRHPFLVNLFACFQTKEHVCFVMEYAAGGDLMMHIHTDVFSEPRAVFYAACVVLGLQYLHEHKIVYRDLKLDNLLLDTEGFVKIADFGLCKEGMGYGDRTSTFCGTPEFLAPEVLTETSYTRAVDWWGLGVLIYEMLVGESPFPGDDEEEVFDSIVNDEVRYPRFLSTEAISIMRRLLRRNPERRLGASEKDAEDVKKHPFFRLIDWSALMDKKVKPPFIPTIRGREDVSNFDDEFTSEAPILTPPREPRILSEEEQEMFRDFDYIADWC

EPHB3 (human) = EPHB3 (human) (UniProt P54753)
PAK6 (human) = PAK6 (human) (UniProt Q9NQU5)
HIPK1 (human) = HIPK1 (human) (UniProt Q86Z02)
PLK1 (human) = PLK1 (human) (UniProt P53350)
MAPK11 (human) = MAPK11 (human) (UniProt Q15759)
RPS6KA5 KD1 KD2 (human) = RPS6KA5 KD1 KD2 (human) (UniProt O75582)
MAP3K9 (human) = MAP3K9 (human) (UniProt P80192)
PAK7 (human) = PAK7 (human) (UniProt Q9P286)
MARK4 (human) = MARK4 (human) (UniProt Q96L34)
MAP3K1 (human) = MAP3K1 (human) (UniProt Q13233)
ROCK2 (rat) = conditions: accession and sequence are those of the human protein
HIPK3 (human) = HIPK3 (human) (UniProt Q9H422)
HIPK3 (human), sequence (Q9H422 whole entry, looked up): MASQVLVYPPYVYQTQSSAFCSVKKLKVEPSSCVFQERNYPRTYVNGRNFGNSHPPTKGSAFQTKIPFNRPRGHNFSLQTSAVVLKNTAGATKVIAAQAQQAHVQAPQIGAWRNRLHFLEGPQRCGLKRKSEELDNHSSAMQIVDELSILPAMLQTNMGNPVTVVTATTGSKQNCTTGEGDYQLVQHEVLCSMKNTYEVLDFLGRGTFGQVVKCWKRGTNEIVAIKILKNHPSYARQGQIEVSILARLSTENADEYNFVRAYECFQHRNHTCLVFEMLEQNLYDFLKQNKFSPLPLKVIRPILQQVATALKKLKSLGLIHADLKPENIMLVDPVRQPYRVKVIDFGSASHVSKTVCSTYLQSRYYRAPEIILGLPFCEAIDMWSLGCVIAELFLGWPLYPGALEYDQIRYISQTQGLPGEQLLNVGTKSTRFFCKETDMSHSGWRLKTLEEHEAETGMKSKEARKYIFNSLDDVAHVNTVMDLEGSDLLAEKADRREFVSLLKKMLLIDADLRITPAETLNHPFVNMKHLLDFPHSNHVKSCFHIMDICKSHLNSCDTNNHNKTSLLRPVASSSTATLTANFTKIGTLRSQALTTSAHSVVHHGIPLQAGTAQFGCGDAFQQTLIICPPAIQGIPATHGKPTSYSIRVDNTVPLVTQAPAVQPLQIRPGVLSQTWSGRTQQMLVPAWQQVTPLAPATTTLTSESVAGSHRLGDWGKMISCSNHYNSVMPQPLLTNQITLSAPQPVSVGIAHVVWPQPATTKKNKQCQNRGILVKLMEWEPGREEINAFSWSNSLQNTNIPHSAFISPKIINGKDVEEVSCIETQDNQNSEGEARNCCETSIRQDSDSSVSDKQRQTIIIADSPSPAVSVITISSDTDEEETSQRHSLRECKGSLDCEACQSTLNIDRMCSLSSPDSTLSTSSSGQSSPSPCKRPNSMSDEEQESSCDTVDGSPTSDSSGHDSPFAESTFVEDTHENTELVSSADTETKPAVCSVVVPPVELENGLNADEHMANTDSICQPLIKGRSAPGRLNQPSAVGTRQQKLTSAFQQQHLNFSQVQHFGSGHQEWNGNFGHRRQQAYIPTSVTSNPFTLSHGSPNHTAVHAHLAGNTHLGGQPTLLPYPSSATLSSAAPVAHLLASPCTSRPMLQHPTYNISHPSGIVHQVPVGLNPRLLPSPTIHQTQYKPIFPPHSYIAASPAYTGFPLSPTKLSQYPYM

IGF1R (human) = IGF1R (human) (UniProt P08069)
IGF1R (human), sequence (P08069 whole entry, looked up): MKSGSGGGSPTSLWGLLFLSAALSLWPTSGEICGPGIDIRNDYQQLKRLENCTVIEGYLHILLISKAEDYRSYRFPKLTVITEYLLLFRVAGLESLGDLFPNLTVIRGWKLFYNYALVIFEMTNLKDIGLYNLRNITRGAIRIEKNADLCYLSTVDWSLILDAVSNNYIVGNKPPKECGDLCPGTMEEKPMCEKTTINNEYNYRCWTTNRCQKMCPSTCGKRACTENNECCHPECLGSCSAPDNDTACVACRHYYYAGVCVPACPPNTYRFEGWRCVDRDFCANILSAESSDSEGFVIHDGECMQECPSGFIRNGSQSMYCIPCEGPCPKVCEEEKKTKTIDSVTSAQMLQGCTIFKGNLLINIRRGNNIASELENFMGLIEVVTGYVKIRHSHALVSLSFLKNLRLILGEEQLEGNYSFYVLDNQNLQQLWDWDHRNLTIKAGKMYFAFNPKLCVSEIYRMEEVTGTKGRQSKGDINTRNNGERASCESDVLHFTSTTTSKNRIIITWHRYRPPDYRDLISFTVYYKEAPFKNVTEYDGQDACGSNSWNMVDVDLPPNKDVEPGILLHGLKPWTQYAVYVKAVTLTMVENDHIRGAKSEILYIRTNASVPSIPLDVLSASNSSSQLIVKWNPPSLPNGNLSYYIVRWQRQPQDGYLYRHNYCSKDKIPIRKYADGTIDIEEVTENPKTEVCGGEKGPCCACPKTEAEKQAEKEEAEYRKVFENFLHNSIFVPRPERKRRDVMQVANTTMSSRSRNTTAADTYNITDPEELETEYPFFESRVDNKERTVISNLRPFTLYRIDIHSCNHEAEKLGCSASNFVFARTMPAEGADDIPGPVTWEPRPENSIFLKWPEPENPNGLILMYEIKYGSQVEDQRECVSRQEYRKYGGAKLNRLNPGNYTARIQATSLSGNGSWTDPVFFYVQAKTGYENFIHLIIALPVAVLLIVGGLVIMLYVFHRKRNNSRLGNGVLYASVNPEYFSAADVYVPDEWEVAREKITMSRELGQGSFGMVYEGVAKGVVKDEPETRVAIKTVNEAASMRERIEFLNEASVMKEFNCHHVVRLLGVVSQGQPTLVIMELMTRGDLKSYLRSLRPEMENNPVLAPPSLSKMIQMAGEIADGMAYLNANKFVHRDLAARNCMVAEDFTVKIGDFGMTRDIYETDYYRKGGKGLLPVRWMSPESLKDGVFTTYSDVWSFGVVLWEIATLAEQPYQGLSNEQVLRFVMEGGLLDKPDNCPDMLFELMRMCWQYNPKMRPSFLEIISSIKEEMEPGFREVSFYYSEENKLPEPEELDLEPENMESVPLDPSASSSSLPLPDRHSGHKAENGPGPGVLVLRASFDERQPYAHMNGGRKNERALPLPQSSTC

MAP3K5 (human) = MAP3K5 (human) (UniProt Q99683)
EPHB4 (human) = EPHB4 (human) (UniProt P54760)
PRKCZ (human) = PRKCZ (human) (UniProt Q05513)
CSK (human) = CSK (human) (UniProt P41240)
CAMKK2 (human) = CAMKK2 (human) (UniProt Q96RR4)
DAPK1 (human) = DAPK1 (human) (UniProt P53355)
DAPK1 (human), sequence (P53355 whole entry, looked up): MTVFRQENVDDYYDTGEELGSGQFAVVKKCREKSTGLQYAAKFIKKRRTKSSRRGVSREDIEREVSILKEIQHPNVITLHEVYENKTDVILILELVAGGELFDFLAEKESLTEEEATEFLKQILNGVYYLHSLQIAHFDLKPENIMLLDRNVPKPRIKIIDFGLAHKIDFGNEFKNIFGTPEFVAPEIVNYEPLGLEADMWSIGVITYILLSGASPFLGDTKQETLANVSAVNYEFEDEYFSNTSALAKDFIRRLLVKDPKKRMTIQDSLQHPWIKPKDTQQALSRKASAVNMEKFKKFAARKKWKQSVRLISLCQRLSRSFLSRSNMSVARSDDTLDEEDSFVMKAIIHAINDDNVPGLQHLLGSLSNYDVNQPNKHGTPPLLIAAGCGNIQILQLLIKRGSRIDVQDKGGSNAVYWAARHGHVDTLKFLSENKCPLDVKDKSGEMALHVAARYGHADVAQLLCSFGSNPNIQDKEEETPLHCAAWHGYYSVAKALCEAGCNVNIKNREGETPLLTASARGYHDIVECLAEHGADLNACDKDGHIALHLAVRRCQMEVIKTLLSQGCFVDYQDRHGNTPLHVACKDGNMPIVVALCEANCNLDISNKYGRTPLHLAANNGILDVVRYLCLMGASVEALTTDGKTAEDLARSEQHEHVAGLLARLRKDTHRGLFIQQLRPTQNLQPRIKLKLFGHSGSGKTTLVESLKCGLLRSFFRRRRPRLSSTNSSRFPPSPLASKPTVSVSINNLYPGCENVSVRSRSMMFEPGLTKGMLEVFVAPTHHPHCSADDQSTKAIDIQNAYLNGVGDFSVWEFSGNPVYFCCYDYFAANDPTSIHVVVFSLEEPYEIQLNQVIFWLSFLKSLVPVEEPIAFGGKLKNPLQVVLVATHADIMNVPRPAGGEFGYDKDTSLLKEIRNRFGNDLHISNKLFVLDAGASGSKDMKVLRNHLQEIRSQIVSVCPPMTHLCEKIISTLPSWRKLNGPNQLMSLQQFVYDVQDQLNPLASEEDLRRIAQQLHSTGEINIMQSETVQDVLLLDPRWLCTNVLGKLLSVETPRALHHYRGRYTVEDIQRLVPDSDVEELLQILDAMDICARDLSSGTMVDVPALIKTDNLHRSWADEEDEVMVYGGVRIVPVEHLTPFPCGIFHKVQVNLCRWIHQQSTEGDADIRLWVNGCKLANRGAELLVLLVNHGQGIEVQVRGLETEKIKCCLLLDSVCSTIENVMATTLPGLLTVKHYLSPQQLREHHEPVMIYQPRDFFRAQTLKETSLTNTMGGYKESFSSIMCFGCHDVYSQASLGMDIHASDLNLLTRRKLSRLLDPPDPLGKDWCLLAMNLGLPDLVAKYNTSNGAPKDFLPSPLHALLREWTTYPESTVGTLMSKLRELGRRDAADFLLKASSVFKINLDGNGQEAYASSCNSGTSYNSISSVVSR

MAP3K7 TAB1 (human) = MAP3K7 TAB1 (human) (UniProt Q15750+O43318)
CLK2 (human) = CLK2 (human) (UniProt P49760)

residual activity (GSK3B (human); compound 10.0 µM): 80%
residual activity (GSK3B (human); compound 50.0 µM): 17%
residual activity (GSK3B (human); compound 100.0 µM): 46%
residual activity (HIPK2 (human); compound 10.0 µM): 99%
residual activity (HIPK2 (human); compound 50.0 µM): 58%
residual activity (HIPK2 (human); compound 100.0 µM): 19%
residual activity (SRC (human); compound 10.0 µM): 44%
residual activity (SRC (human); compound 50.0 µM): 65%
residual activity (SRC (human); compound 100.0 µM): 10%
residual activity (PRKAA1 or PRKAA2 (rat); compound 10.0 µM): 135%
residual activity (PRKAA1 or PRKAA2 (rat); compound 50.0 µM): 67%
residual activity (PRKAA1 or PRKAA2 (rat); compound 100.0 µM): 62%
residual activity (YES1 (human); compound 10.0 µM): 96%
residual activity (YES1 (human); compound 50.0 µM): 13%
residual activity (YES1 (human); compound 100.0 µM): 16%
residual activity (INSR (human); compound 10.0 µM): 103%
residual activity (INSR (human); compound 100.0 µM): 69%
residual activity (MAPK13 (human); compound 10.0 µM): 107%
residual activity (MAPK13 (human); compound 50.0 µM): 116%
residual activity (MAPK13 (human); compound 100.0 µM): 124%
residual activity ([1]; compound 10.0 µM): 56%
residual activity ([1]; compound 50.0 µM): 37%
residual activity ([1]; compound 100.0 µM): 11%
residual activity (SYK (human); compound 10.0 µM): 106%
residual activity (SYK (human); compound 50.0 µM): 36%
residual activity (SYK (human); compound 100.0 µM): 42%
residual activity (EPHA4 (human); compound 10.0 µM): 93%
residual activity (EPHA4 (human); compound 100.0 µM): 64%
residual activity (BRSK2 (human); compound 10.0 µM): 64%
residual activity (BRSK2 (human); compound 50.0 µM): 63%
residual activity (BRSK2 (human); compound 100.0 µM): 28%
residual activity (MAPK1 (human); compound 10.0 µM): 103%
residual activity (MAPK1 (human); compound 50.0 µM): 74%
residual activity (MAPK1 (human); compound 100.0 µM): 49%
residual activity (EPHB1 (human); compound 10.0 µM): 110%
residual activity (EPHB1 (human); compound 100.0 µM): 97%
residual activity (LCK (mouse); compound 10.0 µM): 88%
residual activity (LCK (mouse); compound 50.0 µM): 58%
residual activity (LCK (mouse); compound 100.0 µM): 58%
residual activity (PKN2 (human); compound 10.0 µM): 85%
residual activity (PKN2 (human); compound 50.0 µM): 85%
residual activity (PKN2 (human); compound 100.0 µM): 59%
residual activity (EPHB3 (human); compound 10.0 µM): 81%
residual activity (EPHB3 (human); compound 100.0 µM): 55%
residual activity (PAK6 (human); compound 10.0 µM): 69%
residual activity (PAK6 (human); compound 50.0 µM): 92%
residual activity (PAK6 (human); compound 100.0 µM): 82%
residual activity (HIPK1 (human); compound 10.0 µM): 74%
residual activity (HIPK1 (human); compound 100.0 µM): 35%
residual activity (PLK1 (human); compound 10.0 µM): 88%
residual activity (PLK1 (human); compound 50.0 µM): 28%
residual activity (PLK1 (human); compound 100.0 µM): 25%
residual activity (MAPK11 (human); compound 10.0 µM): 89%
residual activity (MAPK11 (human); compound 50.0 µM): 84%
residual activity (MAPK11 (human); compound 100.0 µM): 77%
residual activity (RPS6KA5 KD1 KD2 (human); compound 10.0 µM): 69%
residual activity (RPS6KA5 KD1 KD2 (human); compound 50.0 µM): 39%
residual activity (RPS6KA5 KD1 KD2 (human); compound 100.0 µM): 42%
residual activity (MAP3K9 (human); compound 10.0 µM): 59%
residual activity (MAP3K9 (human); compound 100.0 µM): 18%
residual activity (PAK7 (human); compound 10.0 µM): 58%
residual activity (PAK7 (human); compound 50.0 µM): 50%
residual activity (PAK7 (human); compound 100.0 µM): 39%
residual activity (MARK4 (human); compound 10.0 µM): 92%
residual activity (MARK4 (human); compound 100.0 µM): 45%
residual activity (MAP3K1 (human); compound 10.0 µM): 26%
residual activity (MAP3K1 (human); compound 100.0 µM): 7%
residual activity (ROCK2 (rat); compound 10.0 µM): 91%
residual activity (ROCK2 (rat); compound 50.0 µM): 49%
residual activity (ROCK2 (rat); compound 100.0 µM): 75%
residual activity (HIPK3 (human); compound 10.0 µM): 97%
residual activity (HIPK3 (human); compound 50.0 µM): 52%
residual activity (HIPK3 (human); compound 100.0 µM): 43%
residual activity (IGF1R (human); compound 10.0 µM): 94%
residual activity (IGF1R (human); compound 100.0 µM): 65%
residual activity (MAP3K5 (human); compound 10.0 µM): 140%
residual activity (MAP3K5 (human); compound 100.0 µM): 250%
residual activity (EPHB4 (human); compound 10.0 µM): 82%
residual activity (EPHB4 (human); compound 100.0 µM): 49%
residual activity (PRKCZ (human); compound 10.0 µM): 96%
residual activity (PRKCZ (human); compound 50.0 µM): 67%
residual activity (PRKCZ (human); compound 100.0 µM): 28%
residual activity (CSK (human); compound 10.0 µM): 79%
residual activity (CSK (human); compound 50.0 µM): 46%
residual activity (CSK (human); compound 100.0 µM): 82%
residual activity (CAMKK2 (human); compound 10.0 µM): 87%
residual activity (CAMKK2 (human); compound 50.0 µM): 48%
residual activity (CAMKK2 (human); compound 100.0 µM): 78%
residual activity (DAPK1 (human); compound 10.0 µM): 107%
residual activity (DAPK1 (human); compound 100.0 µM): 83%
residual activity (MAP3K7 TAB1 (human); compound 10.0 µM): 83%
residual activity (MAP3K7 TAB1 (human); compound 100.0 µM): 72%
residual activity (CLK2 (human); compound 10.0 µM): 81%
residual activity (CLK2 (human); compound 100.0 µM): 30%
Compound: N#Cc1c(O)c2c(-c3ccc(-c4ccccc4O)cc3)csc2[nH]c1=O

residual activity (GSK3B (human); compound 1.0 µM): 63%
residual activity (GSK3B (human); compound 10.0 µM): 14%
residual activity (HIPK2 (human); compound 1.0 µM): 22%
residual activity (HIPK2 (human); compound 10.0 µM): 11%
residual activity (SRC (human); compound 1.0 µM): 108%
residual activity (SRC (human); compound 10.0 µM): 95%
residual activity (PRKAA1 or PRKAA2 (rat); compound 1.0 µM): 81%
residual activity (PRKAA1 or PRKAA2 (rat); compound 10.0 µM): 51%
residual activity (YES1 (human); compound 1.0 µM): 100%
residual activity (YES1 (human); compound 10.0 µM): 87%
residual activity (INSR (human); compound 1.0 µM): 100%
residual activity (INSR (human); compound 10.0 µM): 91%
residual activity (MAPK13 (human); compound 1.0 µM): 113%
residual activity (MAPK13 (human); compound 10.0 µM): 77%
residual activity ([1]; compound 1.0 µM): 106%
residual activity ([1]; compound 10.0 µM): 98%
residual activity (SYK (human); compound 1.0 µM): 114%
residual activity (SYK (human); compound 10.0 µM): 102%
residual activity (EPHA4 (human); compound 1.0 µM): 109%
residual activity (EPHA4 (human); compound 10.0 µM): 106%
residual activity (BRSK2 (human); compound 1.0 µM): 115%
residual activity (BRSK2 (human); compound 10.0 µM): 105%
residual activity (MAPK1 (human); compound 1.0 µM): 114%
residual activity (MAPK1 (human); compound 10.0 µM): 95%
residual activity (EPHB1 (human); compound 1.0 µM): 108%
residual activity (EPHB1 (human); compound 10.0 µM): 100%
residual activity (LCK (mouse); compound 1.0 µM): 100%
residual activity (LCK (mouse); compound 10.0 µM): 98%
residual activity (PKN2 (human); compound 1.0 µM): 98%
residual activity (PKN2 (human); compound 10.0 µM): 54%
residual activity (EPHB3 (human); compound 1.0 µM): 122%
residual activity (EPHB3 (human); compound 10.0 µM): 104%
residual activity (PAK6 (human); compound 1.0 µM): 121%
residual activity (PAK6 (human); compound 10.0 µM): 110%
residual activity (HIPK1 (human); compound 1.0 µM): 65%
residual activity (HIPK1 (human); compound 10.0 µM): 12%
residual activity (PLK1 (human); compound 1.0 µM): 83%
residual activity (PLK1 (human); compound 10.0 µM): 16%
residual activity (MAPK11 (human); compound 1.0 µM): 102%
residual activity (MAPK11 (human); compound 10.0 µM): 100%
residual activity (RPS6KA5 KD1 KD2 (human); compound 1.0 µM): 90%
residual activity (RPS6KA5 KD1 KD2 (human); compound 10.0 µM): 22%
residual activity (MAP3K9 (human); compound 1.0 µM): 126%
residual activity (MAP3K9 (human); compound 10.0 µM): 91%
residual activity (PAK7 (human); compound 1.0 µM): 103%
residual activity (PAK7 (human); compound 10.0 µM): 94%
residual activity (MARK4 (human); compound 1.0 µM): 106%
residual activity (MARK4 (human); compound 10.0 µM): 97%
residual activity (MAP3K1 (human); compound 1.0 µM): 109%
residual activity (MAP3K1 (human); compound 10.0 µM): 93%
residual activity (ROCK2 (rat); compound 1.0 µM): 90%
residual activity (ROCK2 (rat); compound 10.0 µM): 93%
residual activity (HIPK3 (human); compound 1.0 µM): 63%
residual activity (HIPK3 (human); compound 10.0 µM): 10%
residual activity (IGF1R (human); compound 1.0 µM): 74%
residual activity (IGF1R (human); compound 10.0 µM): 74%
residual activity (MAP3K5 (human); compound 1.0 µM): 95%
residual activity (MAP3K5 (human); compound 10.0 µM): 72%
residual activity (EPHB4 (human); compound 1.0 µM): 109%
residual activity (EPHB4 (human); compound 10.0 µM): 110%
residual activity (PRKCZ (human); compound 1.0 µM): 126%
residual activity (PRKCZ (human); compound 10.0 µM): 60%
residual activity (CSK (human); compound 1.0 µM): 100%
residual activity (CSK (human); compound 10.0 µM): 95%
residual activity (CAMKK2 (human); compound 1.0 µM): 105%
residual activity (CAMKK2 (human); compound 10.0 µM): 44%
residual activity (DAPK1 (human); compound 1.0 µM): 47%
residual activity (DAPK1 (human); compound 10.0 µM): 17%
residual activity (MAP3K7 TAB1 (human); compound 1.0 µM): 104%
residual activity (MAP3K7 TAB1 (human); compound 10.0 µM): 67%
residual activity (CLK2 (human); compound 1.0 µM): 73%
residual activity (CLK2 (human); compound 10.0 µM): 14%
Compound: FC(F)(F)c1ccc(-c2ccc(Oc3cncc4sc(-c5nn[nH]n5)cc34)cc2)cc1
